Data from publication PMC9114170, “Investigation of the Role of Hydrophobic Amino Acids on the Structure-Activity Relationship in the Antimicrobial Venom Peptide Ponericin L1” (The Journal of membrane biology, 2021).
Ends that are not written are not given here.

Columns and labels:
[1] = Acrylamide quenching of Trp fluorescence in absence and presence of lipid vesicles; assay type: physicochemical; details: 2 μM peptide in PBS pH 7.0, λex 295 nm, λem 340, average of three replicates ± SD; for Acrylamide quenching Ksv, PCPG: 3:1 DOPC:DOPG vesicles; for Acrylamide quenching Ksv, PCPG / Acrylamide quenching Ksv, PEPG / Acrylamide quenching Ksv, PC / Acrylamide quenching Ksv, PC/Chol: 250 μM lipid; for Acrylamide quenching Ksv, PEPG: 3:1 POPE:DOPG vesicles; for Acrylamide quenching Ksv, PC: DOPC vesicles; for Acrylamide quenching Ksv, PC/Chol: DOPC:Cholesterol vesicles; for Acrylamide quenching Ksv, PBS: no lipid vesicles
Experimental: To form small unilamellar vesicles (SUVs) sonication or ethanol dilution methods were implemented ([Caputo & London, 2019]). In all cases, lipid vesicle preparation was the same. Depending on the lipid composition, appropriate volumes of lipids in chloroform were mixed in a glass tube and then allowed to dry under N2 gas for 15 minutes. The lipid films were then placed in a vacuum desiccator and allowed to dry further under a vacuum for 1 hour. For vesicles formed through ethanol dilution methods, 10 μL of pure ethanol was added to the film, and then vortex until the dissipation of the film. While continuing to vortex, the appropriate amount of PBS was added. For vesicles formed using the method of sonication, PBS was added directly to the tube while being vortexed to create multilamellar vesicles (MLVs). The MLV suspension was covered with parafilm and then placed in a high-powered bath sonicator (Avanti Lipids) and subjected to sonication for 20 minutes to create SUVs.
Acrylamide quenching was monitored by titration of samples with 10 μL aliquots of 4M acrylamide titrated into peptide samples prepared as described above. These samples contained either or [0.25] mM total lipid. After each addition of acrylamide, Trp fluorescence intensity was measured using λex = 295 nm and λem = 340. Corrections to the emission intensity were made for background subtraction, dilutions, and inner filter effects in the excitation path as described previously. The same method to calculate Ksv was used as above.
In order to gain more insight into the bilayer interactions, fluorescence quenching approaches were utilized. The peptides were exposed to the aqueous quencher acrylamide in solution or when bound to vesicles. […] Thus, peptide Trp exposure to the aqueous milieu can be gauged by the extent of quenching by acrylamide. Stern-Volmer quenching plots were created to analyze the data and Ksv (slopes of a linear fit to the data) are shown in Figure 4 and Table 2. […] In the case of L1L and L1I, there was a significant reduction in quenching between the solution (free) state of the peptide and when bound to anionic vesicles, but a much smaller reduction if any when interacting with zwitterionic vesicles. This is consistent with a more deeply buried Trp in anionic bilayers.

[2] = system: Gram-positive and Gram-negative strains; test: Antimicrobial activity over the MIC panel; assay type: cell-based; details: highest concentration tested 15μM
Experimental: Six different strains of bacteria were streaked on LB-Miller agar plates from a frozen glycerol stock derived from the original samples shipped from CGSC (Coli Genetic Stock Center, Yale University) or ATCC (American Type Culture Collection) (Escherichia coli D31 CGSC 5165 ([Burman, Nordstrom & Boman, 1968]), Staphylococcus aureus ATCC 35556. Pseudomonas aeruginosa PA-01 ATCC 47085, Acinetobacter baumannii ATCC 19606). For each of the strains a liquid overnight culture was prepared using a single colony into fresh LB broth and placed in a shaking incubator for ~ 18 hours at 37 C at 225 rpm. After the incubation period, a 1:200 dilution was made in fresh LB broth and then used for experimentation. Minimal Inhibitory Concentration (MIC) determinations were performed using mid-log phase bacteria diluted to 5 x 10^5 CFU/mL. Next, 90 μL of this diluted culture was then pipetted into a sterile 96-well plate that contains serially diluted aliquots of the peptide variants to consist of a total volume of 100 μL. This plate was then incubated for 18 hours at 37 C. Bacterial growth was determined by taking an OD600 measurement using a Spectramax M5 multimode plate reader post incubation. Minimal Bactericidal Concentration (MBC) was performed by taking 1 μL of the culture from the MIC plate and then pipetting it on to a fresh LB agar plate. After plating this culture, the plate was then incubated overnight at 37 C. MBC was determined by the growth or the lack of growth from each well on the agar plate.
The ability of L1 and the hydrophobic variants to act as antimicrobials was investigated using the Minimal Inhibitory Concentration (MIC) and Minimal Bactericidal Concentration (MBC) assays as previously described ([Wiegand, Hilpert & Hancock, 2008]). The MIC is determined as the lowest concentration of peptide required to inhibit bacterial growth in solution, while the MBC is the lowest concentration required to act in a bactericidal mechanism (as opposed to bacteriostatic) and is determined by plating MIC cultures on antimicrobial-free media. Peptides were screened against E. coli, S. aureus, A. baumannii, P. aeruginosa, B. subtilis, and K. pneumoniae.

[3] = Trichloroethanol (TCE) quenching of Trp fluorescence, solution aggregation assay; assay type: physicochemical; details: 2 μM peptide in PBS pH 7.0, titration with 10M TCE, λex 280 nm, λem 340, average of three replicates
Experimental: Trichloroethanol (TCE) quenching was monitored by titration of samples with 10 μL aliquots of 10M TCE (Alfa Aesar, Haverhill, Massachusetts) into peptide samples prepared as described above. After each addition of TCE, Trp fluorescence intensity was measured using λex = 280 nm and λem = 340. Corrections to the emission intensity were made for background subtraction and dilutions. The slope of the linear best fit equation to the data (eqn 2) was used as the Stern-Volmer quenching constant (Ksv) (2) F0/F=1+Ksv[Q] where F0 is the fluorescence intensity in the absence of quencher, and F is the fluorescence intensity in the presence of a given concentration of quencher [Q].
The environment of the L1 Trp residue was further probed using fluorescence quenching by trichloroethanol (TCE) which selectively exerts quenching on Trp residues which are shielded from the aqueous milieu, such as at the interior of a peptide aggregate. The results are shown in Figure 2B, with the Ksv values for the quenching shown in Supplemental Table 1. […] However, considering the reduced overall hydrophobicity of this peptide and thus higher aqueous solubility, decreased TCE quenching is not surprising.

[4] = system: E. coli D31 outer membrane; test: E. coli outer membrane permeabilization (nitrocefin / β-lactamase); assay type: cell-based, Escherichia coli; details: E. coli D31, nitrocefin hydrolysis, absorbance 486 nm, up to 90 minutes; peptide serially diluted from 15 μM; average of three replicates
Experimental: A single colony of E.coli D31 was taken from an LB agar plate and inoculated into fresh LB broth with 100 μg/mL ampicillin (LB-Amp), then place in a shaking incubator at 37 C (225 rpm) for ~ 18 hours. After the incubation period 100 μL was taken from the culture and diluted with 25 mL of fresh LB-Amp. The dilution was further incubated in the same conditions until an OD600 of 0.2 to 0.4 was obtained. Once the specified OD600 was reached the culture was then centrifuged at 2500 rpm for 15 minutes in a tabletop clinical centrifuge. The supernatant was discarded and then an equal amount of PBS (100 mM NaH2PO4, 200 mM NaCl, pH7) was used to resuspend the pellet.
Experimental samples were prepared in a 96-well plate in the order as follows: 10 μL of the six peptide variants that were serially diluted starting a concentration of 15 μM with the exception of the last row (used as a negative control 10 μL of 0.01% acetic acid). 80 μL of the resuspended bacteria culture, and 10 μL of 50 μg/mL nitrocefin in PBS. The absorbance was recorded at 486 nm in 5-minute intervals for a total run time of 90 minutes immediately following the addition of nitrocefin. The antimicrobial agent polymyxin B was used as a positive control. The values presented are the average of three replicates.
As the mechanism of action of the L1 venom peptide is likely a membrane disruptive mechanism, the effect of the hydrophobic substitutions on membrane permeabilization was investigated using E.coli and ovine red blood cells (RBCs). The permeabilization of the E. coli outer membrane was assayed using an enzyme-substrate pair in which the enzyme (β-lactamase) is located in the periplasmic space while the substrate (the chromogenic nitrocefin) is added to the exterior of cells. […] Similarly, the permeabilization of the E. coli inner membrane was assessed using a cytoplasmic enzyme, β-galactosidase, and a chromogenic substrate, ONPG. […]

[5] = Red edge excitation shift (REES) solution aggregation assay; assay type: physicochemical; details: 2 μM peptide in PBS pH 7.0, λex 280 to 307 nm, emission 310 to 410 nm, Trp fluorescence, average of three replicates
Source text: All fluorescence spectroscopy experiments were preformed using a JY-Horiba Fluoromax4 instrument. Excitation and emission slit widths were kept consistent at 2.5 nm. Semi-micro quartz cuvettes were utilized for each experiment. The following formula was used to calculate a spectral barycenter for each experiment: (1) B=∑λ*i/∑i where B is the barycenter, λ is the wavelength, and i is the intensity at the specified wavelength. An entire emission spectrum from 300-400 was used the carry out the calculation of barycenter.
Red edge excitation shift (REES) experiments utilized excitation at 6 different wavelengths (λex = 280, 290, 295, 300, 305, and 307 nm) and the same emission range of 310 to 410 nm. Samples were similarly prepared as above. A blank only containing PBS buffer was used as background to correct the spectra after each addition.
Aggregation of peptides was assessed utilizing the intrinsic fluorescence properties of the Trp residue in the L1 sequence. […] Differences in the side chain motion/dynamics of the Trp residue and the local environment around the Trp can be observed by monitoring the red-edge excitation shifts (REES). […]

[6] = system: Sheep red blood cells (RBCs); details: earlier work of the group; ref Senetra, Necelis & Caputo, 2020b; cited from earlier work
Source text: The ponerine ant, Neoponera goeldii (previously classified as Pachycondyla goeldii), produces a mixture of venom peptides known as ponericins ([Orivel et al., 2001]). These peptides have been subdivided into three sub-classes based on the amino acid sequences (L, W, and G) and contain a total of 15 independent peptide sequences. […] Among these peptides, the L1 sequence was the most poorly characterized.

Sequence	Acrylamide quenching Ksv, PCPG [1] [M⁻¹]	Acrylamide quenching Ksv, PEPG [1] [M⁻¹]	Acrylamide quenching Ksv, PC [1] [M⁻¹]	Acrylamide quenching Ksv, PC/Chol [1] [M⁻¹]	Acrylamide quenching Ksv, PBS [1] [M⁻¹]	Antimicrobial activity (summary of MIC results) [2]	TCE quenching of Trp fluorescence (extent) [3]	Outer membrane permeabilization [4]	REES total shift [5]	Hemolytic activity [6]
AAKEAWTKMKGAGKAAAGKAKGAA [L1A]	10.9 ± 0.26	3.59 ± 0.58	8.51 ± 0.46	10.79 ± 0.27	8.19 ± 0.90	no antimicrobial activity	markedly lower than the others			
IIKEIWTKMKGAGKAIIGKIKGII [L1I]	8.72 ± 2.09	3.39 ± 2.25	4.9 ± 1.51	12.65 ± 0.63	10.5 ± 0.67	broad spectrum activity		no membrane disruption above background		
VVKEVWTKMKGAGKAVVGKVKGVV [L1V]	16.86 ± 6.47	5.64 ± 0.38	4.18 ± 0.15	12.19 ± 1.54	12.14 ± 1.59	no antimicrobial activity	showed the most quenching		~ 10 nm	
LLKELWTKMKGAGKAVLGKIKGLL [L1, ponericin L1]										very low level of hemolytic activity
